Consider 26 compounds from patent publication US12448369B2 (Edgewise Therapeutics, Inc., priority 2023, dated 2025).

Marks after values point to notes of the source that are not given here.

Test [1] deals with T1, Porcine ventricle myofibrils (ventricular myosin ATPase) (Sus scrofa, UniProt P79293).
T1 construct: Myofibrils from porcine cardiac muscle was isolated from the left ventricle of Yucatan minipigs; tissue Exemplar Genetics; host or cells: left ventricle of Yucatan minipigs, myofibrils prepared in house
T1 sequence (P79293 whole entry): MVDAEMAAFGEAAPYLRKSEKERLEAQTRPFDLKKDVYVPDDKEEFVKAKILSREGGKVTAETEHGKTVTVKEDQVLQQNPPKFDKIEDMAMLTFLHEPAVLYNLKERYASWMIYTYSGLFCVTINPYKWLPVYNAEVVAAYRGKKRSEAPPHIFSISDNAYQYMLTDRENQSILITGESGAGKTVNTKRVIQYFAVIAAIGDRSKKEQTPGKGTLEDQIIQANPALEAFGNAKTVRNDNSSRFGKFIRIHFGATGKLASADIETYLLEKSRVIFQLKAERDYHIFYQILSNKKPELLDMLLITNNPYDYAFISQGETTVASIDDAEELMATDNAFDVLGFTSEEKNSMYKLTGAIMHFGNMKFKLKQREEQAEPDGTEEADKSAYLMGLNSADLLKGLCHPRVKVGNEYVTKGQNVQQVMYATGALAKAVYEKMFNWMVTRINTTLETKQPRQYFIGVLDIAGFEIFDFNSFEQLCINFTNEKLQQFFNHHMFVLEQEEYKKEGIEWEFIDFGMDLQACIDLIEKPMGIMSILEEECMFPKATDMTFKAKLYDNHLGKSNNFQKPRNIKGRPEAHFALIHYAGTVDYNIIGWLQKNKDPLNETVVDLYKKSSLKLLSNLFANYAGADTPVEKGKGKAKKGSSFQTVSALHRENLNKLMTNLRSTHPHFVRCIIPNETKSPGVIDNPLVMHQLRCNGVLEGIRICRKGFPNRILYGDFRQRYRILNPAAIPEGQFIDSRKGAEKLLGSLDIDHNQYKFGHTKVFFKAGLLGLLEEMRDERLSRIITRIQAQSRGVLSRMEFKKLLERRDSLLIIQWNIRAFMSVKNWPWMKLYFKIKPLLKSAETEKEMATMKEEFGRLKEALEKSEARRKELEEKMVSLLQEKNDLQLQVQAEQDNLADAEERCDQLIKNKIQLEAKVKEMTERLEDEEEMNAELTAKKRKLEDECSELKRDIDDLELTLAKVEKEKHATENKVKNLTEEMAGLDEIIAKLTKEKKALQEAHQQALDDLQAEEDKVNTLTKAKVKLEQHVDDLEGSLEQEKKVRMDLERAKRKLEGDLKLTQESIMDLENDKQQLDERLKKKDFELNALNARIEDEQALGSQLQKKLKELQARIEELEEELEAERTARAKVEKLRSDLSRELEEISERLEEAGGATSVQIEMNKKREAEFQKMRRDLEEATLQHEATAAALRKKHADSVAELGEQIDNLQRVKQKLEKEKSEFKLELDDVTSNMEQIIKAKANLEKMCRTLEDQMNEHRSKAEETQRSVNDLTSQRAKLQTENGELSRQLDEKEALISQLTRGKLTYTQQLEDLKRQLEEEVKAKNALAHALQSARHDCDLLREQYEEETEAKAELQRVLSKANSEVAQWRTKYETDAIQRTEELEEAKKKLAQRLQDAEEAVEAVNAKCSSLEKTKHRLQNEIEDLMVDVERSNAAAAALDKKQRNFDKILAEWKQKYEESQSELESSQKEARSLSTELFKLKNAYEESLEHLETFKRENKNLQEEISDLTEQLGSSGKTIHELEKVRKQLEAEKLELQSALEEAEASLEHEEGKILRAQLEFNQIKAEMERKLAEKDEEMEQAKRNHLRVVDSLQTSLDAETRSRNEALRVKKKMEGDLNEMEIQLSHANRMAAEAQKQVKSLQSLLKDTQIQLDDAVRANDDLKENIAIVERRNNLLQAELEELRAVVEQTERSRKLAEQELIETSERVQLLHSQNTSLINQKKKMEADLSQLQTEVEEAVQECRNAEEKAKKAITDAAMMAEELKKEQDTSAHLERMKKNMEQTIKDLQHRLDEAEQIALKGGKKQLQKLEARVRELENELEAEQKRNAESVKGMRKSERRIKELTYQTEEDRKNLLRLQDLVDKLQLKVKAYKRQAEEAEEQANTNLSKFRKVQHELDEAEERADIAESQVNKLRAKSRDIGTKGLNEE
The test is described as follows: Myofibril ATPase assay, porcine ventricle myofibrils. The class given is biochemical, porcine (Yucatan minipigs). The conditions noted are these: porcine ventricle myofibrils. Summed up: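 Read-out: A340 kinetic, NADH consumption coupled to ADP via PK-LDH, 75 min. Yucatan minipig LV myofibrils, pCa buffer (PIPES/CaCl2/EGTA, pH 7.0). Linear-regression slope (mAU/min), vehicle = 100%, 4PL fit; Y75 or Y125 reported.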

Test [2] deals with Rabbit Psoas myofibrils (skeletal myosin ATPase). In words: Myofibril ATPase assay, rabbit psoas (skeletal) myofibrils. The class given is biochemical. The conditions noted are these: rabbit psoas myofibrils. Summed up: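 Rabbit psoas skeletal myofibrils in PIPES/CaCl2/EGTA pCa buffer, pH 7.0. ATPase rate followed by PK-LDH-coupled NADH loss at 340 nm, read every 1.5–2 min for 75 min. Slopes normalized to vehicle (100%) and fitted to a 4-parameter logistic; values are Y75 (25% inhibition) or Y125 (25% activation) concentrations.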

Test [3] deals with Porcine atria myofibrils (atrial myosin ATPase). In words: Myofibril ATPase assay, porcine atria myofibrils. The class given is biochemical. The conditions noted are these: porcine atria myofibrils. Summed up: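 Coupled PK-LDH reaction links ADP from myosin ATPase to NADH loss, read at 340 nm every 1.5-2 min for 75 min. Slopes (mAU/min) normalized to vehicle-only wells (100%) and fit to a 4-parameter logistic; Y75 is the concentration cutting activity by 25%, Y125 is reported for activators.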

Setting [4] is: Y75 value (75% activity relative to no compound).

`COc1cccc([C@@H](C)NC(=O)Cc2c(C)c3c(C)nccc3[nH]c2=O)c1` (single isomer, unassigned) [compound 314]: the “Ventricular EC25” value in test [1] (Y75 value) stood at 100.00 µM. Moreover, the “Skeletal EC25” value in test [2] (Y75 value) came out at 100.00 µM. Moreover, the “Atrial EC25” value in test [3] (setting [4]) amounted to 100.00 µM.
On to `Cc1cc(F)cnc1[C@H](C)NC(=O)C1(c2cc3c(F)c(F)ccc3[nH]c2=O)CC1` (single isomer, unassigned) [compound 4806], for which, in test [1] (Y75 value (no ‡ mark)), the “Ventricular EC25” value amounted to 33.85 µM. The “Skeletal EC25” value in test [2] (Y75 value (no ‡ mark)) came to 2.39 µM. Further, in test [3] (Y75 value (no ‡ mark)), the “Atrial EC25” value is 0.71 µM.
In the same order, the values of `N#Cc1cnc2c(c1)OC[C@@H]2NC(=O)Cc1cc2c(F)c(F)ccc2[nH]c1=O` (single isomer, unassigned) [compound 14] are 0.34 µM, 0.07 µM and 0.21 µM.
In the same order, the values of `C[C@H](NC(=O)Cc1cc2c(F)cccc2[nH]c1=O)c1ccc(F)cc1F` [compound 131] are 0.81 µM, 0.02 µM and 0.07 µM.
In the same order, the values of `C[C@@H](NC(=O)C1(c2cc3c(F)c(F)ccc3[nH]c2=O)CC1)c1ncc(C#N)cc1F` (single isomer, unassigned) [compound 2592] are 0.47 µM, 3.54 µM and 0.13 µM.
Regarding `Cc1c(CC(=O)N[C@H](CO)c2ccc(F)cc2F)c(=O)[nH]c2ccc(C#N)nc12` [compound 210], the “Ventricular EC25” value in test [1] (Y75 value) turned out to be 100.00 µM. Besides, in test [2] (Y75 value), the “Skeletal EC25” value was determined as 7.04 µM. Moreover, the “Atrial EC25” value in test [3] (setting [4]) turned out to be 30.20 µM.
With `Cc1nnccc1C(C)NC(=O)Cc1cc2cc(F)c(F)cc2[nH]c1=O` (stereo not drawn) [compound 2073], the “Ventricular EC25” value in test [1] (Y75 value (no ‡ mark)) was 100.00 µM. The “Skeletal EC25” value in test [2] (Y75 value (no ‡ mark)) stood at 100.00 µM. Besides, the “Atrial EC25” value in test [3] (Y75 value (no ‡ mark)) amounted to 100.00 µM.
On to `Cc1nnccc1[C@@H](C)NC(=O)Cc1c(C)c2cc(F)ccc2[nH]c1=O` [compound 1090], for which the “Ventricular EC25” value in test [1] (Y75 value (no ‡ mark)) was determined as 100.00 µM. For the same compound, in test [2] (Y75 value (no ‡ mark)), the “Skeletal EC25” value worked out at 100.00 µM. In test [3] (Y75 value (no ‡ mark)), the “Atrial EC25” value was found to be 5.79 µM.
Consider `C[C@@H](NC(=O)Cc1c(C2CC2)c2cnccc2[nH]c1=O)c1ccc(C#N)cn1` [compound 140], for which the “Ventricular EC25” value in test [1] (Y75 value) amounted to 100.00 µM. In addition, in test [2] (Y75 value), the “Skeletal EC25” value worked out at 42.18 µM. Also, the “Atrial EC25” value in test [3] (setting [4]) stood at 100.00 µM.
As for `Cc1nccc2[nH]c(=O)c(C3(C(=O)N[C@H](C)c4ncc(C#N)cc4F)CC3)c(C)c12` (single isomer, unassigned) [compound 3519], the “Ventricular EC25” value in test [1] (Y75 value) was 17.07 µM. In addition, in test [2] (Y125 value, not a Y75 value), the “Skeletal EC25 (Y125 value, marked ‡)” value is reported as 97.12‡ μM. Also, the “Atrial EC25” value in test [3] (setting [4]) came out at 0.94 µM.
On to `C[C@H](NC(=O)Cc1c(C(F)F)c2cnccc2[nH]c1=O)c1ccc(F)cc1F` [compound 438], for which, in test [1] (Y75 value), the “Ventricular EC25” value was found to be 7.68 µM. For the same compound, the “Skeletal EC25” value in test [2] (Y75 value) stood at 0.60 µM. Besides, the “Atrial EC25” value in test [3] (setting [4]) is 2.35 µM.
In the same order, the values of `C[C@H](NC(=O)[C@@H](C)c1cc2c(C3CC3)nccc2[nH]c1=O)c1ccc(F)cc1F` (single isomer, unassigned) [compound 356] are 100.00 µM, 157.50 µM and 100.00 µM.
In the same order, the values of `Cc1c([C@@H](Cc2ccccc2)C(=O)N[C@@H](C)c2ccc(F)cc2F)c(=O)[nH]c2ccnc(F)c12` (single isomer, unassigned) [compound 358] are 54.71 µM, 100.00 µM and 23.89 µM.
In the same order, the values of `Cc1nccc2[nH]c(=O)c(CC(=O)N[C@H](CO)Cc3ccccc3)c(C)c12` [compound 495] are 100.00 µM, 100.00 µM and 100.00 µM.
For the compound `Cc1ccccc1[C@@H](C)NC(=O)Cc1c(C)c2c(C)nccc2[nH]c1=O` (single isomer, unassigned) [compound 326], in test [1] (Y75 value), the “Ventricular EC25” value stood at 100.00 µM. Moreover, the “Skeletal EC25” value in test [2] (Y75 value) was found to be 100.00 µM. The “Atrial EC25” value in test [3] (setting [4]) stood at 100.00 µM.
Regarding `C[C@H](NC(=O)Cc1cc2ccccc2[nH]c1=O)c1ccc(F)cc1F` [compound 137], the “Ventricular EC25” value in test [1] (Y75 value (no ‡ mark)) was 3.33 µM. The “Skeletal EC25” value in test [2] (Y75 value (no ‡ mark)) was 0.19 µM. In addition, in test [3] (Y75 value (no ‡ mark)), the “Atrial EC25” value came out at 1.12 µM.
Taken in the same sequence, the figures for `Cc1cc([C@@H](C)NC(=O)Cc2c(C)c3c(C)c(F)ccc3[nH]c2=O)ncc1F` (single isomer, unassigned) [compound 2076] were 46.49 µM, 2.56 µM and 100.00 µM.
Taken in the same sequence, the figures for `Cc1c(C(F)(F)C(=O)N[C@H](C)c2ncc(C#N)cn2)c(=O)[nH]c2ccc(F)c(C#N)c12` (single isomer, unassigned) [compound 2521] were 1.83 µM, 0.41 µM and 0.32 µM.
Regarding `Cc1c(C(F)(F)C(=O)N[C@H](C)c2nccc(C#N)n2)c(=O)[nH]c2ccc(F)cc12` (single isomer, unassigned) [compound 2527], in test [1] (Y75 value (no ‡ mark)), the “Ventricular EC25” value was found to be 100.00 µM. Besides, the “Skeletal EC25” value in test [2] (‡ Y125 value, not a Y75 value (125% activity relative to no compound)) is 100.00‡ μM. In addition, in test [3] (Y75 value (no ‡ mark)), the “Atrial EC25” value turned out to be 4.73 µM.
For `Cc1c(CC(=O)N[C@H](C)c2ncc(C#N)cc2F)c(=O)[nH]c2ccnc(C#N)c12` (single isomer, unassigned) [compound 284], the “Ventricular EC25” value in test [1] (Y75 value) worked out at 10.63 µM. The “Skeletal EC25” value in test [2] (Y75 value) was determined as 0.49 µM. For the same compound, in test [3] (setting [4]), the “Atrial EC25” value is 4.56 µM.
As to `Cc1nccc2[nH]c(=O)c(CC(=O)N[C@H](C)c3cccc(O)c3)c(C)c12` (single isomer, unassigned) [compound 330], the “Ventricular EC25” value in test [1] (Y75 value) turned out to be 100.00 µM. Besides, in test [2] (Y75 value), the “Skeletal EC25” value was 100.00 µM. The “Atrial EC25” value in test [3] (setting [4]) came out at 100.00 µM.
As to `Cc1c(CC(=O)N[C@@H]2COc3cc(C#N)cnc32)c(=O)[nH]c2ccc(F)cc12` [compound 1062], the “Ventricular EC25” value in test [1] (Y75 value (no ‡ mark)) turned out to be 6.56 µM. For the same compound, in test [2] (Y75 value (no ‡ mark)), the “Skeletal EC25” value came to 9.26 µM. The “Atrial EC25” value in test [3] (Y75 value (no ‡ mark)) was determined as 3.49 µM.
Turning to `Cc1nccc2[nH]c(=O)c(CC(=O)N[C@H](CCO)c3ccc(F)cc3F)c(C)c12` (single isomer, unassigned) [compound 341], in test [1] (Y75 value), the “Ventricular EC25” value was found to be 100.00 µM. In addition, the “Skeletal EC25” value in test [2] (Y75 value) came to 100.00 µM. For the same compound, the “Atrial EC25” value in test [3] (setting [4]) is 100.00 µM.
For the compound `Cc1c(CC(=O)N[C@@H](C)c2ncc(C#N)cn2)c(=O)[nH]c2ccc(F)c(C3CC3)c12` (single isomer, unassigned) [compound 2060], the “Ventricular EC25” value in test [1] (Y75 value (no ‡ mark)) turned out to be 3.02 µM. The “Skeletal EC25” value in test [2] (Y75 value (no ‡ mark)) was 0.26 µM. Moreover, the “Atrial EC25” value in test [3] (Y75 value (no ‡ mark)) came out at 0.45 µM.
In the case of `Cc1nccc2[nH]c(=O)c(CC(=O)N[C@H](C)c3cccc(O)n3)c(C)c12` (single isomer, unassigned) [compound 297], the “Ventricular EC25” value in test [1] (Y75 value) turned out to be 100.00 µM. In test [2] (Y75 value), the “Skeletal EC25” value was 100.00 µM. In test [3] (setting [4]), the “Atrial EC25” value came to 100.00 µM.
Consider `Cc1nccc2[nH]c(=O)c(CC(=O)N[C@@H](C)c3ccc(C#N)cc3F)c(F)c12` [compound 149], for which the “Ventricular EC25” value in test [1] (Y75 value) came to 0.10 µM. In test [2] (Y75 value), the “Skeletal EC25” value came to 0.02 µM. Moreover, in test [3] (setting [4]), the “Atrial EC25” value worked out at 0.06 µM.
